Series [1] is described as follows: Metabolic stability in Wistar rat liver microsomes assessed as intrinsic clearance at 2.5 uM. The note with it: read-out: CLH. In kind it is ADME, Microsome.
Series [2] has as its target T1, GABA-A receptor; alpha-5/beta-3/gamma-2 (Homo sapiens) (UniProt P18507+P28472+P31644). Nature of the series: Negative allosteric modulation activity at human recombinant alpha5beta3gamma2 GABAA receptor stably expressed in HEK293 cells assessed as modulation at alpha5 subunit at 1 uM by Patch clamp method. The class given is cell-based. Particulars: filed as negative allosteric modulator. In general terms: Patch clamp records ionic current or voltage across a cell membrane.

Series [3] deals with T1, GABA-A receptor; alpha-5/beta-3/gamma-2 (Homo sapiens). The series is described as follows: Negative allosteric modulation activity at human recombinant alpha5beta3gamma2 GABAA receptor stably expressed in HEK293 cells assessed as modulation at alpha5 subunit at 10 uM by Patch clamp method. In kind it is cell-based. Particulars: filed as negative allosteric modulator.
For series [4], the target named is T2, GABA-A receptor; alpha-5/beta-3/gamma-2 (Homo sapiens, UniProt P18507+P28472+P31644).
T2 sequence (P18507 whole entry): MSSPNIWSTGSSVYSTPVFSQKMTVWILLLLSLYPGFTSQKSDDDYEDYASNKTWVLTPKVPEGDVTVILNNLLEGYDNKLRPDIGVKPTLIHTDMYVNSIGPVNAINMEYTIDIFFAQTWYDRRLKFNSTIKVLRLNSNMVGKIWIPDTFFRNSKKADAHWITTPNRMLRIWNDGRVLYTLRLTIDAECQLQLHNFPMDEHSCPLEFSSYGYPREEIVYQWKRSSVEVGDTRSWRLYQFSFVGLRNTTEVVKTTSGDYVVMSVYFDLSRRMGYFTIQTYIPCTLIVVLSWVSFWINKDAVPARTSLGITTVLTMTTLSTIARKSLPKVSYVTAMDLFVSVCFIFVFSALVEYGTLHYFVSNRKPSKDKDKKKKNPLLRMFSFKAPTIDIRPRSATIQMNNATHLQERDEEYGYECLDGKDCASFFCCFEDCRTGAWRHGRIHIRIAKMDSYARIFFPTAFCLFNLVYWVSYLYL
T2 sequence (P28472 whole entry): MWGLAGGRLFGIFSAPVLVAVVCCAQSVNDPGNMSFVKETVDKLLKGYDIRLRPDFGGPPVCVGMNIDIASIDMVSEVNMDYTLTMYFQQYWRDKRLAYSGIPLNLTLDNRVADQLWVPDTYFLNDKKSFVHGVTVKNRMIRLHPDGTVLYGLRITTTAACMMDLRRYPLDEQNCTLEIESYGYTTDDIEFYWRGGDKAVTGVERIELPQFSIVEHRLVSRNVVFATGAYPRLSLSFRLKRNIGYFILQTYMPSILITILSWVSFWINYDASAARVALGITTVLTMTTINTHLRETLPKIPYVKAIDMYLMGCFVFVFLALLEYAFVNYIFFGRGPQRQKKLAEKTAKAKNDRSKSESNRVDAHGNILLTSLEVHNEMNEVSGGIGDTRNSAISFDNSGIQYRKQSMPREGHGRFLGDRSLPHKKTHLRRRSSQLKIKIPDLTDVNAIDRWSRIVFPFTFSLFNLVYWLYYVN
T2 sequence (P31644 whole entry): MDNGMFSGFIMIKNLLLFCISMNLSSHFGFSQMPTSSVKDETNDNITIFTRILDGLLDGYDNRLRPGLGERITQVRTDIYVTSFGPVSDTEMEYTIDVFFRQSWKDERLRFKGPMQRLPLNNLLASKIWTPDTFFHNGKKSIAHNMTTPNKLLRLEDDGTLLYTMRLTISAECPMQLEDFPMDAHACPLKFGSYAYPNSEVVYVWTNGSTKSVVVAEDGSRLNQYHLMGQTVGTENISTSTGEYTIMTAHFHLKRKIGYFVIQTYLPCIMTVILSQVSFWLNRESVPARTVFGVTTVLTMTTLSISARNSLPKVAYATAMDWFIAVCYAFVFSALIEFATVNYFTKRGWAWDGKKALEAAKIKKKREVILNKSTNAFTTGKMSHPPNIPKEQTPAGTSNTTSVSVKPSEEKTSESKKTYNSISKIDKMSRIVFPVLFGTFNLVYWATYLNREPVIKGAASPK
Nature of the series: Displacement of [3H]Ro151788 from human recombinant alpha5beta3gamma2 GABAA receptor stably expressed in HEK293 cell membrane assessed as inhibition constant by radioligand binding assay. The class given is cell membranes. (In general: Loss of bound radioactivity is the signal in a displacement assay; it reports binding, not function.)

In series [5] the target is GABA-A receptor; alpha-1/beta-3/gamma-2 (Homo sapiens) (UniProt P14867+P18507+P28472). The series is described as follows: Negative allosteric modulation activity at human recombinant alpha1beta3gamma2 GABAA receptor stably expressed in HEK293 cells assessed as modulation at alpha1 subunit at 10 uM by Patch clamp method. The note with it: filed as negative allosteric modulator. In kind it is cell-based.

Series [6] can be described thus: Apparent permeability in human Caco-2 cells at 10 uM by HPLC-UV analysis. In kind it is ADME, cell-based.
The nature of series [7]: Ratio of drug level in brain to plasma in Wistar rat at 3 mg/kg, po measured at 1.5 hr post dose. The class given is ADME, organism-based. Particulars: brain and plasma, read-out: BPR.
Series [8] can be described thus: Passive permeability in human Caco-2 cells assessed as permeability damage ratio at 10 uM by HPLC-UV analysis. The class given is ADME, cell-based. Particulars: caco-2, 10 µM.
Series [9] in a line: Metabolic stability in human liver microsomes assessed as intrinsic clearance at 2.5 uM. In kind it is ADME, Microsome. The note with it: read-out: CLH. (In general: Liver microsomes are vesicles of endoplasmic reticulum, rich in cytochrome P450 enzymes.)
For series [10], the target named is Voltage-gated inwardly rectifying potassium channel KCNH2 (Homo sapiens, UniProt Q12809). Nature of the series: Inhibition of hERG expressed in CHO cells stably at -80 mV holding potential by automated patch clamp method. In kind it is toxicity, cell-based.
Voltage-gated inwardly rectifying potassium channel KCNH2, sequence (Q12809 whole entry): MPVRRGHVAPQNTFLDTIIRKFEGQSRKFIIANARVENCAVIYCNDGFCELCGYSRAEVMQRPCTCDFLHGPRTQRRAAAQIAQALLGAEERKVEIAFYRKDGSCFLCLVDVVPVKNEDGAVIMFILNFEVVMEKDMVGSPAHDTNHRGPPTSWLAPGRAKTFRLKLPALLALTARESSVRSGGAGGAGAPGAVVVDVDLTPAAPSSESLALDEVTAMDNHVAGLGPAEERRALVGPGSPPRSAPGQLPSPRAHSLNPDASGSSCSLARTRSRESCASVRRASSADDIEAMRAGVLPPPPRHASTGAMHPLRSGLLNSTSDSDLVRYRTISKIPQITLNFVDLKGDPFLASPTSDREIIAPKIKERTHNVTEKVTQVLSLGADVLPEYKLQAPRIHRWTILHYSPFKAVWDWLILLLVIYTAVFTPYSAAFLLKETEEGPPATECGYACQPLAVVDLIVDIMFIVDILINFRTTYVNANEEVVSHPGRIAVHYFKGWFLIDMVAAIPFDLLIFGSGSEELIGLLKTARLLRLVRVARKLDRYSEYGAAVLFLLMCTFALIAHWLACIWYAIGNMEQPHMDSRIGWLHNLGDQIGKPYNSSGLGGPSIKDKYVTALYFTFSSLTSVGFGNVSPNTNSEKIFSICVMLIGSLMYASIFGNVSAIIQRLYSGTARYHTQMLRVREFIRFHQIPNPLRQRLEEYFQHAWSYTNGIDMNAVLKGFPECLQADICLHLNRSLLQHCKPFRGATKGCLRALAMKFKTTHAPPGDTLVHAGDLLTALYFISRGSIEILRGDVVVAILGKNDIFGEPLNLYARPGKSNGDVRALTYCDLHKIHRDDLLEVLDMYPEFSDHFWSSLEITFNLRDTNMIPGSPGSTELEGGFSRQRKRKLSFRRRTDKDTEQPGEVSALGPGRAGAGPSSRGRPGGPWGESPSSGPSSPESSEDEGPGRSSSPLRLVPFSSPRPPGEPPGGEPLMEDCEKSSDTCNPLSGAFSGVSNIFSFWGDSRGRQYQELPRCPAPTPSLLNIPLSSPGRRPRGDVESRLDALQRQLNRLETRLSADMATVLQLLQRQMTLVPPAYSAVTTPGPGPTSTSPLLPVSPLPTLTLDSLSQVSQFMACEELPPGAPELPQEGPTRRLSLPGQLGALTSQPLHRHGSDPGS

SMILES strings stand for the structures. Bounds are passed on as bounds.

As a reminder, the Ki is a dissociation constant, usually derived from enzyme kinetics or from competition with a known ligand. In general, Papp refers to a coefficient for how fast a substance crosses the barrier. As a reminder, the IC50 is the concentration needed to halve the response being measured. A low value points to inhibition by little substance. Turning to `Cc1nnn(-c2ccc(F)cc2)c1COc1ccc2c(n1)CCN(C(=O)C1CCCO1)C2` (configuration not stated), the microsomal CLint at 2.5 µM was 46 µL/min/mg in series [1] and 15 µL/min/mg in series [9]. Further, the Activity in series [2] was -30%; in [3], -43%; in series [5] it was -8%. Also, in series [4], the inhibition constant (Ki) stood at 39 nM. In [6], the Papp at 10 µM came to 47.1 ×10⁻⁶ cm/s. Further, the Kp at 1.5 h in [7] came to 0.31. The Ratio in series [8] came to 0.92. The compound further showed an IC50 in [10] above 30000 nM.
`Cc1nnn(-c2ccc(F)cc2)c1COc1ccc2c(n1)CCN(C(=O)NC1CCOC1)C2` (configuration not stated): the microsomal CLint at 2.5 µM in [1] amounted to 39 µL/min/mg; in series [9], 10 µL/min/mg. Further, the Activity in series [2] was -32%; in [3] it was -34%. Moreover, the Ki in series [4] amounted to 28 nM. Also, the Papp at 10 µM in series [6] stood at 18.7 ×10⁻⁶ cm/s. For the same compound, the Ratio in series [8] worked out at 4.7. This compound also registered an IC50 in series [10] of 21000 nM.
Consider `Cc1onc(-c2ccc(F)cc2)c1COc1ccc2c(n1)CCNC2=O`, for which the values for the microsomal CLint at 2.5 µM in series [1] and in series [9] were 227 µL/min/mg and 14 µL/min/mg, respectively. Besides, the Activity in [2] was -25%; in series [3] it was -42%; in series [5] it was 2%. Besides, in series [4], the Ki is 4.1 nM. Further, the 50% inhibitory concentration (IC50) in [10] turned out to be 10000 nM.
Turning to `Cc1onc(-c2ccc(F)cc2)c1COc1ccc2c(n1)CCN(C(=O)C1CCOCC1)C2`, the microsomal CLint at 2.5 µM in series [1] was 93 µL/min/mg; in series [9], 10 µL/min/mg. Further, the Activity in series [2] was -20%; in series [3], -37%; in [5] it was -9%. Further, the inhibition constant (Ki) in [4] is 9.2 nM. In addition, in [10], it took 5700 nM to reach half-maximal inhibition (IC50).
Turning to `Cc1onc(-c2ccc(F)cc2)c1COc1ccc2c(n1)CCN(CCS(C)(=O)=O)C2=O`, the microsomal CLint at 2.5 µM in series [1] is 89 µL/min/mg; in series [9], 7 µL/min/mg. Besides, the Activity is -33% in series [2], -46% in [3] and -12% in series [5]. For the same compound, the Ki in [4] turned out to be 7.7 nM. The apparent permeability coefficient (Papp) at 10 µM in series [6] was found to be 49.3 ×10⁻⁶ cm/s. The Ratio in series [8] was found to be 1.1. The same compound registered an IC50 in series [10] of 1100 nM.
On to `Cc1nnn(-c2ccc(F)cc2)c1COc1ccc2c(n1)CCN(C(=O)NC1CC(=O)N(C)C1)C2` (configuration not stated), for which the microsomal CLint at 2.5 µM in series [1] is 11 µL/min/mg; in series [9], 4 µL/min/mg. The results for the Activity in [2], in series [3] and in [5] were -31%, -35% and -3%, respectively. Besides, in series [4], the Ki stood at 38 nM. Further, the Papp at 10 µM in series [6] is 0.33 ×10⁻⁶ cm/s. In addition, the Ratio in [8] turned out to be 134. The compound also registered a 50% inhibitory concentration (IC50) in [10] above 30000 nM.
Take `Cc1nnn(-c2ccc(F)cc2)c1COc1ccc2c(n1)CCN(C(=O)C1CC(=O)N(C)C1)C2` (configuration not stated): the results for the microsomal CLint at 2.5 µM in series [1] and in [9] were 4 µL/min/mg and 1 µL/min/mg, respectively. Besides, the Activity in [2] was -32%; in [3] it was -47%. In series [4], the inhibition constant Ki was 35 nM. The apparent permeability (Papp) at 10 µM in series [6] amounted to 7.54 ×10⁻⁶ cm/s. Moreover, the Ratio in series [8] is 8.9. Also, the concentration for half-maximal inhibition (IC50) in series [10] is 30000 nM.
As for `Cc1onc(-c2ccc(F)cc2)c1COc1ccc2c(n1)CCN(C)C2=O`, the microsomal CLint at 2.5 µM in series [1] is 404 µL/min/mg; in [9], 28 µL/min/mg. In addition, the Activity in series [2] is -21%; in [3], -31%; in series [5], -8%. The inhibitory constant (Ki) in series [4] worked out at 2.8 nM. The midpoint of inhibition in series [10], the IC50, lay at 3800 nM.
On to `Cc1onc(-c2ccc(F)cc2)c1COc1ccc2c(n1)CCN(C(=O)C1CCOC1)C2` (configuration not stated), for which the values for the microsomal CLint at 2.5 µM in series [1] and in series [9] were 158 µL/min/mg and 24 µL/min/mg, respectively. The Activity in series [2] was -24%; in series [3], -40%; in series [5], -14%. The Ki in series [4] amounted to 7 nM. This compound also came in with an IC50 in series [10] of 3600 nM.

The record behind these values is ChEMBL document CHEMBL5154916, “Multiparameter Optimization of Naphthyridine Derivatives as Selective α5-GABAA Receptor Negative Allosteric Modulators” (J Med Chem, 2022).
